Data on 40 compounds can be found in ChEMBL document CHEMBL1201862, “PubChem BioAssay data set” (2004).

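Values below derive from 48-hour exposures of cells grown in 96-well plates, with endpoints linearly interpolated between the two concentrations bracketing the appropriate inhibition level. At the GI50, growth is halved.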 Active and inactive are the calls of the source. No stated cut-off is given here; in the data, active = GI50 up to about 1.1 µM and inactive = higher.

Test in all cases: inhibition of tumour cell growth, NCI panel, 48 h
The test system of experiment [1] is MDA-MB-231.
Experiment [2] has as its system MDA-MB-435.
Experiment [3] has as its system MDA-N.
For experiment [4], the system named is PC-3.
Experiment [5] relates to T47D.
The test system of experiment [6] is DMS-114.
In experiment [7] the test system is M19-MEL.
For experiment [8], the system named is XF498.

For `C=Cc1cnc([N+](=O)[O-])n1C`, the GI50 in experiment [1] was > 100 µM (inactive); in experiment [2] it was 60.8 µM (inactive); in experiment [3], 40 µM (inactive); in experiment [4], 40.8 µM (inactive); in experiment [5] it was 46.5 µM (inactive).
Turning to `CC(C)(C)OC(=O)NC(Cc1ccc(OCc2ccccc2)cc1)C(=O)NC(COCc1ccccc1)C(=O)Oc1c(Cl)c(Cl)c(Cl)c(Cl)c1Cl` (centres undefined), the GI50 was 13.5 µM (inactive) in experiment [1]; 21.7 µM (inactive) in experiment [2]; 26.4 µM (inactive) in experiment [3]; 19.5 µM (inactive) in experiment [4]; 22.8 µM (inactive) in experiment [5].
The like results for `C=CC[N+]12CN3CN(CN(C3)C1)C2` were, in that order, 32.2 µM (inactive), 19.7 µM (inactive), 17.3 µM (inactive), 31.4 µM (inactive) and 27 µM (inactive).
`CC(C(=O)NCCNC(=O)CCC(=O)N(C)O)C(=O)NCCNC(=O)CCC(=O)N(C)O`: the GI50 in experiment [1], in experiment [2], in experiment [3], in experiment [4] and in experiment [5] was > 100 µM (inactive) in each case.
In the case of `CSc1nc2nc(C)c(C)nc2c(=O)[nH]1`, the GI50 in experiment [6], in experiment [7] and in experiment [8] was > 100 µM (inactive) in each case.
Regarding `S=C(Cc1ccc2c(c1)Sc1ccccc1O2)N1CCOCC1`, the GI50 in experiment [1] was 58.7 µM (inactive); in experiment [2], 29.4 µM (inactive); in experiment [3], 42.7 µM (inactive); in experiment [4], 28.3 µM (inactive); in experiment [5], 38.7 µM (inactive).
For the compound `CNc1ccc2c(c1)[C@@]1(C)c3ccccc3[C@@H](C2)N1C`, the GI50 is 23.2 µM (inactive) in experiment [1]; 19.1 µM (inactive) in experiment [2]; 24.4 µM (inactive) in experiment [3]; 29.9 µM (inactive) in experiment [4]; 28.1 µM (inactive) in experiment [5].
Turning to `C=C1Oc2nc3ccccc3c(=O)n2C1(C)C`, the GI50 in experiment [6], in experiment [7] and in experiment [8] was > 100 µM (inactive) each time.
With `O=c1[nH]nc(-c2ccccc2)n1/N=C/c1ccccc1Cl`, the GI50 in experiment [1] is > 100 µM (inactive); in experiment [2], 19.1 µM (inactive); in experiment [3], 33.1 µM (inactive); in experiment [4], 15.1 µM (inactive); in experiment [5] it was 24.8 µM (inactive).
Regarding `O=C1/C(=C/c2ccc(Oc3ccccc3)cc2)N=C(c2ccccc2)N1c1ccc(S(=O)(=O)Nc2nccs2)cc1`, the GI50 in experiment [1] is 28.2 µM (inactive); in experiment [2], 2.62 µM (inactive); in experiment [3], 3.22 µM (inactive); in experiment [4], 25.4 µM (inactive); in experiment [5], 12.8 µM (inactive).
Take `COc1ccc2c(c1)OCCC1=C2SCC2(C)CCN=C12` (centres undefined): the GI50 in experiment [6] was 92 µM (inactive); in experiment [8], > 100 µM (inactive).
Consider `CCOC(=O)c1ccc(C(=O)n2ccnc2)[nH]1`, for which the GI50 in experiment [1], in experiment [2], in experiment [3], in experiment [4] and in experiment [5] was > 100 µM (inactive) in each case.
`O=P1(O)c2ccccc2CS(=O)(=O)Cc2ccccc21`: the GI50 in experiment [1], in experiment [2], in experiment [3], in experiment [4] and in experiment [5] was > 100 µM (inactive) throughout.
On to `COc1ccc(/N=C\c2cc(OC)c(OC)c(OC)c2)cc1`, for which the GI50 in experiment [6] is 57.4 µM (inactive); in experiment [7], > 100 µM (inactive); in experiment [8], > 100 µM (inactive).
Regarding `C=C1CC(C)(COc2ccc3c(C)c(C)c(=O)oc3c2C)OC1=O` (centres undefined), the GI50 in experiment [1] is 2.52 µM (inactive); in experiment [2], 2.7 µM (inactive); in experiment [3], 1.77 µM (inactive); in experiment [4], 2.27 µM (inactive); in experiment [5] it was 1.28 µM (inactive).
The like results for `Cc1nc2n(c1/C=C1/C(=O)Nc3cccc(Cl)c31)CCS2` were, in that order, 18.7 µM (inactive), 33.5 µM (inactive), 57.9 µM (inactive), 38 µM (inactive) and 15.1 µM (inactive).
Turning to `COC(=O)Cc1c([C@H]2[C@H](CC(=O)OC)c3ccccc3N2C(=O)C(F)(F)F)[nH]c2ccccc12`, the GI50 in experiment [1] is 20.7 µM (inactive); in experiment [2], 21.9 µM (inactive); in experiment [3], 32.3 µM (inactive); in experiment [4] it was 11.4 µM (inactive); in experiment [5], 36.5 µM (inactive).
With `COc1ccc(OCC(C)(C)O)cc1`, the GI50 in experiment [6] and in experiment [8] was > 100 µM (inactive) throughout.
Consider `O=C(N/N=C1\C(=O)Nc2ccc(Br)cc21)/C(O)=C/C(=O)c1ccc(Cl)cc1`, for which the GI50 in experiment [1] was 45.5 µM (inactive); in experiment [2], 39.9 µM (inactive); in experiment [3], 39.3 µM (inactive); in experiment [4], 77.1 µM (inactive); in experiment [5], 36.6 µM (inactive).
In the case of `C=C1COC(/C=C(\C)CC/C=C(\C)CCl)C1` (centres undefined), the GI50 in experiment [6], in experiment [7] and in experiment [8] was > 100 µM (inactive) in each case.
Regarding `CC(C)(C)c1ccc(C(O)c2ccc(C(C)(C)C)cc2)cc1`, the GI50 in experiment [6] was 12.7 µM (inactive); in experiment [7], 13.7 µM (inactive); in experiment [8], 15.1 µM (inactive).
Consider `CC(C)=CCN1c2ccc(Cl)cc2NC(=O)CC1C` (centres undefined), for which the GI50 was 19.3 µM (inactive) in experiment [1]; 19.5 µM (inactive) in experiment [2]; 21.7 µM (inactive) in experiment [3]; 23.8 µM (inactive) in experiment [4]; 29.6 µM (inactive) in experiment [5].
In the case of `COc1ccc(-c2csc3c2[N+]2(C)C=CC=C2C3N2CCCC2)cc1` (centres undefined), the GI50 is 94 µM (inactive) in experiment [1]; 3.13 µM (inactive) in experiment [2]; 7.6 µM (inactive) in experiment [3]; 23 µM (inactive) in experiment [4]; 16.3 µM (inactive) in experiment [5].
Consider `CC(=O)/C=C1\CC(=O)N(C)c2ccccc2N1`, for which the GI50 in experiment [6] was 29.3 µM (inactive); in experiment [7], > 100 µM (inactive); in experiment [8] it was > 100 µM (inactive).
Turning to `CCCCCCCC(=O)OCC1OC(n2cc(F)c(=O)[nH]c2=O)C(NC(=O)OCc2ccccc2)C(OC(=O)CCCCCCC)C1O` (centres undefined), the results for the GI50 in experiment [6] and in experiment [7] were 24 µM (inactive) and 23.6 µM (inactive), respectively.
`CCOC(=O)C(NC(=O)N(C1=NCC(C)S1)C1CCCCC1)(OC)C(F)(F)F` (centres undefined): the GI50 in experiment [1] is 46.5 µM (inactive); in experiment [2] it was 32.2 µM (inactive); in experiment [3] it was 30.9 µM (inactive); in experiment [4] it was 30.8 µM (inactive); in experiment [5] it was 32.5 µM (inactive).
Take `CC(C)(CN1CCCCC1)C(=O)/C=C/c1c(Cl)cccc1Cl`: the GI50 was 0.789 µM (active) in experiment [1]; 0.7 µM (active) in experiment [2]; 0.792 µM (active) in experiment [3]; 1.91 µM (inactive) in experiment [4]; 0.421 µM (active) in experiment [5].
As for `CCOC(=O)c1csc(NC(=O)CCN2CCCCC2)n1`, the GI50 in experiment [1], in experiment [2], in experiment [3], in experiment [4] and in experiment [5] was > 100 µM (inactive) in each case.
For the compound `CSC(=N)N1N=C2/C(=C/c3ccccc3)CCC[C@H]2[C@H]1c1ccccc1`, the GI50 in experiment [6] is 2.9 µM (inactive); in experiment [8], 10.8 µM (inactive).
Regarding `CCCc1cc(=O)oc2c3c(c4c(c12)OC(C)(C)CC4)O[C@@H](C)[C@H](C)[C@H]3O`, the GI50 in experiment [1] was 2.16 µM (inactive); in experiment [2], 5.94 µM (inactive); in experiment [3], 2.69 µM (inactive); in experiment [4] it was 4.23 µM (inactive); in experiment [5] it was 6.58 µM (inactive).
Take `COc1cc(C)cc(OC)c1/C=C/C(=O)O`: the GI50 in experiment [1], in experiment [2], in experiment [3], in experiment [4] and in experiment [5] was > 100 µM (inactive) in each case.
Regarding `Cc1ccc(S(=O)(=O)N/N=C2\C=C[C@]3(CC2)C(=O)N(C)c2ccccc23)cc1`, the GI50 in experiment [1], in experiment [2], in experiment [3], in experiment [4] and in experiment [5] was > 100 µM (inactive) throughout.
With `CC1(c2nc3ccccc3[nH]2)CCC(C#N)C(C)(C)O1` (centres undefined), the GI50 in experiment [1], in experiment [2], in experiment [3], in experiment [4] and in experiment [5] was > 100 µM (inactive) throughout.
On to `COc1cc(CO)c(CC(=O)NCCCc2ccccc2)cc1OC`, for which the GI50 in experiment [1] was > 100 µM (inactive); in experiment [2] it was 56 µM (inactive); in experiment [3], 34.1 µM (inactive); in experiment [4], > 100 µM (inactive); in experiment [5], 15 µM (inactive).
Consider `COC(=O)c1ccc(NC(=O)c2cc(OC)c(OC)c(OC)c2)cc1`, for which the GI50 in experiment [6] is 0.305 µM (active); in experiment [7], 1.04 µM (active).
For `CCCCCCc1cc2cc(C(=O)Nc3nc(C45CC6CC(CC(C6)C4)C5)cs3)c(=O)oc2cc1O`, the GI50 in experiment [1] was 7.33 µM (inactive); in experiment [2] it was 7.13 µM (inactive); in experiment [3], 11.4 µM (inactive); in experiment [4], 9.27 µM (inactive); in experiment [5], 5.68 µM (inactive).
Regarding `CC(C)C(=O)/C=C/c1ccc(Br)cc1`, the GI50 is 15.2 µM (inactive) in experiment [6], 15.4 µM (inactive) in experiment [7] and 16.8 µM (inactive) in experiment [8].
Turning to `S=C(S)N1CCN(c2ccccc2)CC1`, the GI50 in experiment [1], in experiment [2], in experiment [3], in experiment [4] and in experiment [5] was > 100 µM (inactive) in each case.
With `C=C1CCC2[C@@H](CCC3[C@]2(C)CCC[C@]3(C)C(=O)OC)C1CCO` (some centres undefined), the GI50 in experiment [6] was 5.11 µM (inactive); in experiment [7], 15 µM (inactive); in experiment [8], 10.2 µM (inactive).
For `Oc1cc(O)c2c(c1)O[C@H](c1ccc(O)c(O)c1)[C@@H](O)C2` [CIANIDANOL], the GI50 in experiment [1], in experiment [2], in experiment [3], in experiment [4] and in experiment [5] was > 100 µM (inactive) each time.
